Key:
Type in all cases: in vivo, Triticum aestivum
[1] = system: hard red spring wheat populations (W1 through W15); assay: Soaking of wheat seeds in glyphosate herbicide solution, planting in herbicide-treated growing medium, count of surviving plants; conditions: for Surviving plants after seed treatment: seed soaking and planting; for Number of Surviving Wheat Plants: approx. 5,000 seeds
Experimental: Preferably the wheat seeds are soaked in an aqueous solution of the herbicide. Commonly the herbicide is present in the solution in a concentration of approximately 1.5 to 6 percent by weight, and most preferably in a concentration of approximately 2 percent by weight. Commonly the wheat seeds are simply immersed in the liquid comprising the herbicide. The soaking of wheat seeds is conducted for a period of time that is sufficient for the herbicide to reach the embryos of the wheat seeds. […] The liquid comprising the herbicide can be simply provided at room temperature when the wheat seeds are in contact with the liquid and are undergoing such soaking.
Alternatively, such screening of the resulting wheat plants for herbicide resistance can include the presence of the herbicide in the growing medium where the resulting seeds are planted. Good results are obtained in a preferred embodiment when one gallon of a solution containing the herbicide in a concentration of approximately 1.5 to 6 percent by weight is added to each 4 gallons of soil. The presence of the herbicide in the soil helps to assure that an atypical wheat seed having a harder seed coat has not given a false indication of herbicide resistance by its survival up to the point of germination.
Some varieties have produced no surviving plants in tests to date. Some varieties have produced up to approximately 4 surviving plant per 5,000 seeds, others approximately 1 surviving plant per 5,000 seeds. The herbicide resistance of the resulting plants can be further confirmed by another contact (e.g., spraying) with the glyphosate herbicide.
Fifteen different known and publically available hard red spring wheat populations (W1 through W15) were chosen for evaluation and screening in accordance with the process of the present invention. Each of the starting materials was believed to lack herbicide resistance that is attributable to genetic engineering. Also, each population, as all other Triticum aestivium varieties, was regarded to be highly sensitive to glyphosate herbicide during previous observations.
Individual batches of each wheat population were initially immersed and were soaked in 2 percent aqueous solutions of glyphosate herbicide that were present at room temperature. The wheat seeds were provided in contact with the glyphosate herbicide for a period of 6 hours during which time the glyphosate herbicide reached the embryos of the seeds.
Each wheat seed population was labeled and next was planted in a 50/50 sandy-loam top soil/peat growing medium. The wheat seeds were present in flats containing the growing medium at a depth of approximately 2 inches. The same 2 percent by weight aqueous solutions of glyphosate herbicide were poured into each growing medium containing the wheat seeds.
The flats containing the wheat seeds next were placed in a greenhouse under ambient conditions in an effort to achieve germination. The sandy-loam top soil/peat growing medium was periodically watered in an effort to achieve near field growing conditions except for the presence of glyphosate herbicide.
Of those that did germinate some died within the first 2 days, and only 6 of the 15 wheat populations produced any plants following the soaking in the glyphosate herbicide as reported in Table I. These 6 populations were W1 to W5 and W15. Each plant was carefully preserved and tagged in order to preserve the lineage for those that survived the exposure to the glyphosate herbicide at the seed stage.

[2] = system: wheat plants of the 64 flats (progeny of surviving plants); assay: Spraying of progeny seedlings of surviving plants with glyphosate herbicide at the three-leaf stage in the greenhouse; conditions: 1.2 percent aqueous solution sprayed at three-leaf stage
Text: Fifteen seeds from each head of each surviving plant were next planted in 64 individual flats in a greenhouse containing a like 50/50 sandy-loam top soil/peat growing medium. A designation system was adopted which began with the initial Wheat Population Designation (e.g., W1) next followed by the plant number (e.g., −1, −2 for W1), and finally followed by the head number (e.g., h1). The wheat plants of the 64 flats were identified as follows:
The seeds were encouraged to germinate and wheat plants emerged. At the three-leaf stage a 1.2 percent aqueous solution of glyphosate herbicide was applied to the plants by spraying. […] Remnant seeds from these 2 plants taken from heads W2-1-h10 and W2-4-h9 were planted in the greenhouse, germinated, and underwent self-pollination to increase the seeds. Plants derived from these seeds were not subjected to the glyphosate herbicide in an effort to maximize yield and to establish a germplasm base for further testing. W2-1-h10 produced six healthy plants that were designated W2-1-h10-p1-1a through -6a. The “a” designation served to specify that the generation was not treated with glyphosate herbicide. Similarly, W2-4-h9 produced 10 plants that were designated W2-4-h9-p1-1a through 10a. All plants were allowed to mature, to undergo self-pollination, and to produce seed heads. Each head was tagged to maintain a clear record of lineage. […]

[3] = system: wheat selections of 'WA7824'/'Zeke' pedigree; assay: Glyphosate herbicide treatment of selections grown in greenhouse flats (after field head row treatment); conditions: 1.2 percent by weight aqueous solution sprayed at three-leaf stage; for Number Killed by Glyphosate Herbicide Treatment / Number of Survivors of Glyphosate Herbicide Treatment: greenhouse flats
Text: The wheat seedlings arising from the germination of this planting were allowed to establish and grow to the three-leaf stage. At this stage of growth glyphosate herbicide was applied to the plants at a rate of 32 oz. per Acre. Survivors of this treatment were allowed to mature, to undergo self-pollination, and the heads from each plant were tagged, removed, and placed in individual containers to ensure a record of continuous lineage from the plants used in the increase (i.e., W2-1-h10-p1-la through 6a and W2-4-h9-p1-la through 10a). Seeds from each head removed from the surviving plants that were exposed to glyphosate herbicide in the field head row plots next were planted in flats in the greenhouse for germination and seedling establishment. The seeds from each head were planted in separate flats to maintain the integrity of each line. At the three-leaf stage, the resulting seedlings were sprayed with an aqueous 1.2 percent by weight solution of glyphosate herbicide. Surviving plants were allowed to grow to maturity, to undergo self-pollination, and to produce heads and seeds. This was done to ensure that the survivors of the glyphosate herbicide treatment also remained fertile and produced viable seeds.

## O=C(O)CNCP(=O)(O)O [glyphosate herbicide, N-(phosphonomethyl)glycine]
[1]; approx. 75,000 seeds of 15 populations, 2 percent aqueous glyphosate, 6 hours soak, observed 10 to 15 days
  Germination of glyphosate herbicide-treated seeds: failed to germinate
[1]; other varieties
  Surviving plants after seed treatment: approximately 1 surviving plant per 5,000 seeds
[1]; populations W1 through W15, 2 percent aqueous glyphosate, 6 hours soak
  Number of wheat populations (of 15) that produced any plants following the soaking: 6
[1]; some varieties
  Surviving plants after seed treatment: ≤ 4 surviving plant per 5,000 seeds
[1]; wheat population W1 ('ID377'/'WestBred 926'), 2 percent aqueous glyphosate, 6 hours soak, same solution in growing medium
  Number of Surviving Wheat Plants: 4
[1]; wheat population W2 ('WA7824'/'Zeke'), 2 percent aqueous glyphosate, 6 hours soak, same solution in growing medium
  Number of Surviving Wheat Plants: 5
[1]; wheat population W3 ('SLW97606'/'WestBred 926'), 2 percent aqueous glyphosate, 6 hours soak
  Number of Surviving Wheat Plants: 1
[1]; wheat population W4 ('SLW97606'/'WestBred 936'), 2 percent aqueous glyphosate, 6 hours soak
  Number of Surviving Wheat Plants: 2
[1]; wheat population W5 ('SLW97606'/'Zeke'), 2 percent aqueous glyphosate, 6 hours soak
  Number of Surviving Wheat Plants: 1
[1]; wheat population W6 ('BZ692-108b'/'Calorwa'), 2 percent aqueous glyphosate, 6 hours soak
  Number of Surviving Wheat Plants: 0
[1]; wheat population W7 ('BZ966-472w'/'Pristine'), 2 percent aqueous glyphosate, 6 hours soak
  Number of Surviving Wheat Plants: 0
[1]; wheat population W8 ('Hank'/'BZ994-484'), 2 percent aqueous glyphosate, 6 hours soak
  Number of Surviving Wheat Plants: 0
[1]; wheat population W9 ('MT9959'/'Hank'), 2 percent aqueous glyphosate, 6 hours soak
  Number of Surviving Wheat Plants: 0
[1]; wheat population W10 ('McNeal'/'Parshall'), 2 percent aqueous glyphosate, 6 hours soak
  Number of Surviving Wheat Plants: 0
[1]; wheat population W11 ('Reeder'/'Conan'), 2 percent aqueous glyphosate, 6 hours soak
  Number of Surviving Wheat Plants: 0
[1]; wheat population W12 ('WA7899'/'Jefferson'), 2 percent aqueous glyphosate, 6 hours soak
  Number of Surviving Wheat Plants: 0
[1]; wheat population W13 ('Alpowa'/'Zak'), 2 percent aqueous glyphosate, 6 hours soak
  Number of Surviving Wheat Plants: 0
[1]; wheat population W14 ('Vanna'/'Zak'), 2 percent aqueous glyphosate, 6 hours soak
  Number of Surviving Wheat Plants: 0
[1]; wheat population W15 ('Zak'/'BZ698-41'), 2 percent aqueous glyphosate, 6 hours soak
  Number of Surviving Wheat Plants: 4
[2]; seedlings derived from W1-2
  Seedlings surviving the application of glyphosate herbicide: single seedling
[2]; seedlings derived from W2-4
  Seedlings surviving the application of glyphosate herbicide: single seedling
[3]; all selections from field head rows
  Tolerance of plants of the selections to the herbicide: All selections generated plants that were tolerant to the herbicide
[3]; selection W2-1-h10-p16a-h2-h1
  Number Killed by Glyphosate Herbicide Treatment: 0
  Number of Survivors of Glyphosate Herbicide Treatment: 10
[3]; selection W2-1-h10-p16a-h2-h5
  Number Killed by Glyphosate Herbicide Treatment: 0
  Number of Survivors of Glyphosate Herbicide Treatment: 15
[3]; selection W2-4-h9-p13a-h2-h17
  Number Killed by Glyphosate Herbicide Treatment: 0
  Number of Survivors of Glyphosate Herbicide Treatment: 3
[3]; selection W2-4-h9-p13a-h2-h18
  Number Killed by Glyphosate Herbicide Treatment: 0
  Number of Survivors of Glyphosate Herbicide Treatment: 5
